Assays:
Assay in all cases: Cysteine liganding, probe competition
Format in all cases: binding
[1] = target: T1, GOLGA2 Golgin subfamily A member 2 (Homo sapiens, UniProt Q08379)
T1 construct: Cells were resuspended in cold PBS on ice and sonicated with a probe sonicator to achieve lysis; endogenous in cells
T1 sequence (Q08379 1-1002): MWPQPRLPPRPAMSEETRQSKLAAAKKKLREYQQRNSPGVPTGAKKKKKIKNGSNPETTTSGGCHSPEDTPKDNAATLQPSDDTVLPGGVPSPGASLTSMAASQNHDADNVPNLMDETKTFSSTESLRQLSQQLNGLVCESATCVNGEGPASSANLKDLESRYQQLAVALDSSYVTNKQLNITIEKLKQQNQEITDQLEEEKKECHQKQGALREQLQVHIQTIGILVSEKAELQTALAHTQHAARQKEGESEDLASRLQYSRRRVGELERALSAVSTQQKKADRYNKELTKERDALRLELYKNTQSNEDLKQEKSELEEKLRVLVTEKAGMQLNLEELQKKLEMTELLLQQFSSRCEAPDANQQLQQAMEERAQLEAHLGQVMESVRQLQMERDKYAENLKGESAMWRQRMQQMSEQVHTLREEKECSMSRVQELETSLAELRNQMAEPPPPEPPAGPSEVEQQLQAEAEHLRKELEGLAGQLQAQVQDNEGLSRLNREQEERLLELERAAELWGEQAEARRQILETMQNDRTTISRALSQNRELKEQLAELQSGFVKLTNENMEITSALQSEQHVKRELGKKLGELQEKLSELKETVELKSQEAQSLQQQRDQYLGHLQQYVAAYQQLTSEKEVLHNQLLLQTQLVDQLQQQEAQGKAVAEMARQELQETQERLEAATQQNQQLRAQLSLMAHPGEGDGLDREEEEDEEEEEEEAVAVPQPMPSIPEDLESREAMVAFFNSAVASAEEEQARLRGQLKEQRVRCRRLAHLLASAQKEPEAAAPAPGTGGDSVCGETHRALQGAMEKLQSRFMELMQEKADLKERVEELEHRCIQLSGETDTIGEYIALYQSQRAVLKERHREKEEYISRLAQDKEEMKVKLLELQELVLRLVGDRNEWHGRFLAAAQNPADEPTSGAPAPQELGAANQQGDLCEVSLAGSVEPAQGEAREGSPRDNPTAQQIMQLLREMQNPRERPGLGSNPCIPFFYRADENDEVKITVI
Method in brief: (§1)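 Steps: sonicate cells in cold PBS; treat 5 mg/ml lysate with compound (25° C, 1 hr); add desthiobiotin iodoacetamide probe from a 10 mM stock (25° C, 1 hr); precipitate, reduce, alkylate, digest with trypsin; capture labelled peptides on streptavidin for analysis.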

[2] = target: T2, DIP2A Disco-interacting protein 2 homolog A (Homo sapiens, UniProt Q14689); details: for Liganded: DIP2A Res# 6, uniprot Q14689
T2 construct: 200 μL of lysate containing 5 mg/ml proteome was treated with 2 μL of 100× compound stock; endogenous in cells
T2 sequence (Q14689 whole entry): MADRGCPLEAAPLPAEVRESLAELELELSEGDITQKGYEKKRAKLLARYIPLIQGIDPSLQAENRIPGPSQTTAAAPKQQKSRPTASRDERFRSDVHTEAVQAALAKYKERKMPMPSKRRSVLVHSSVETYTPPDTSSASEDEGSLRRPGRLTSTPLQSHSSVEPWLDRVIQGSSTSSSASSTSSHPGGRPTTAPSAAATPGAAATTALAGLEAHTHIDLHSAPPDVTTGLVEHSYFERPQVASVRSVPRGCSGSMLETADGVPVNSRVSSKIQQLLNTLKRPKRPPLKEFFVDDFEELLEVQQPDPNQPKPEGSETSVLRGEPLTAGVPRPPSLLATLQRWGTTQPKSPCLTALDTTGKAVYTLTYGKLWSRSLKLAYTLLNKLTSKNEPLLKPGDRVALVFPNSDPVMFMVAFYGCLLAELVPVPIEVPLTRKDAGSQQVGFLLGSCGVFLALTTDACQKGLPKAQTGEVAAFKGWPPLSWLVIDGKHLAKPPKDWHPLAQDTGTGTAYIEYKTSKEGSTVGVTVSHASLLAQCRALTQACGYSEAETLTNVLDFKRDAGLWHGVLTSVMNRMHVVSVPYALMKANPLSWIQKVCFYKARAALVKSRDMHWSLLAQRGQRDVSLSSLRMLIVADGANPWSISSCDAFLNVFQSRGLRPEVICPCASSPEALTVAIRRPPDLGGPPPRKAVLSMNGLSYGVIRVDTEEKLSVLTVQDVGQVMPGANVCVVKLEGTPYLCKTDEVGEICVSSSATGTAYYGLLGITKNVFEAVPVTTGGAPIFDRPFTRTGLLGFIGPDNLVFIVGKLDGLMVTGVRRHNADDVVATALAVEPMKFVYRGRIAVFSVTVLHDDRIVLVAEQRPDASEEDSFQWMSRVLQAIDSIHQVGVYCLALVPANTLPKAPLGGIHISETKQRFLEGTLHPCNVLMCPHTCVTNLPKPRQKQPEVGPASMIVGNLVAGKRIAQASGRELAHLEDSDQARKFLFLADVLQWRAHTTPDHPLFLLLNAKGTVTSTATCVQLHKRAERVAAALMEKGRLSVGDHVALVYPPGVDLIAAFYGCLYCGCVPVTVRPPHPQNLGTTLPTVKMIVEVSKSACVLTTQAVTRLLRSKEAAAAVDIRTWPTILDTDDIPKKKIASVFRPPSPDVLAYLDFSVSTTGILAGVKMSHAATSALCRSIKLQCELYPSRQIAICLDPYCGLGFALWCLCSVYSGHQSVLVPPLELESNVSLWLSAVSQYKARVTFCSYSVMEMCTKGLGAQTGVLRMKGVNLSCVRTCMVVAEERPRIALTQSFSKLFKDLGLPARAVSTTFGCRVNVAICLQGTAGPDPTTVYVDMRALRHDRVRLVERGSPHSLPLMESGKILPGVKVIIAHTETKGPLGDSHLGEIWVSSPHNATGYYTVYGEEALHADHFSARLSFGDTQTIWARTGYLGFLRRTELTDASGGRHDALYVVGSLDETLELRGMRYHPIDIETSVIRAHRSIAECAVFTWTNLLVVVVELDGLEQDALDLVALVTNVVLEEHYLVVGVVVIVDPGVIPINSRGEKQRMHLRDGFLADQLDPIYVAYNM
Method in brief: as §1

[3] = target: T3, E3 ubiquitin-protein ligase pellino homolog 1 (PELI1) (Homo sapiens, UniProt Q96FA3)
T3 construct: Cells were resuspended in cold PBS on ice and sonicated with a probe sonicator to achieve lysis; endogenous in cells
T3 sequence (Q96FA3 whole entry): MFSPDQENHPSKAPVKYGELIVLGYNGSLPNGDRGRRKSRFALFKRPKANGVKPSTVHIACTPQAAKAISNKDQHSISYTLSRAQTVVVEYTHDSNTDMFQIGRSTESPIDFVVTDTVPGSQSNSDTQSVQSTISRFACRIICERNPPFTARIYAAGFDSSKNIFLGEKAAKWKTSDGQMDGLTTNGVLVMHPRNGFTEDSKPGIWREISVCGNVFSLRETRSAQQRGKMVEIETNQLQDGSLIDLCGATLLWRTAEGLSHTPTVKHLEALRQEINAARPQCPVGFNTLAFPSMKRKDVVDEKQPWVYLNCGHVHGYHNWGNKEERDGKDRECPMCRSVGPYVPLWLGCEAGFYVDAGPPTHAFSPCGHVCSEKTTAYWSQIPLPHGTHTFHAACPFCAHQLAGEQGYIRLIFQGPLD
Method in brief: as §1

**Q.** Which Liganded ([1]; GOLGA2 Res# 794, uniprot Q08379) does the source give for COc1ccc2c(c1)CCCN2C(=O)CCl [KB02] here?
**A.** YES

**Q.** And the Liganded [2]?
**A.** YES

**Q.** Which inhibition at 100 µM ([3]; read-out: KB05_100 uM_percent_inhibition) does the source give for C=CC(=O)N(c1ccccc1)c1ccc(Br)cc1 [KB05] here?
**A.** 2%

**Q.** For O=C(CCl)Nc1cc(C(F)(F)F)cc(C(F)(F)F)c1 [KBO3], which “100 Max” value ([1]; uniprot Q08379) is on record?
**A.** 1.85

**Q.** And the 100 ave ([1]; uniprot Q08379)?
**A.** 1.85

**Q.** And the “500 Max” value ([1]; uniprot Q08379)?
**A.** 54.38

**Q.** What about the 500 ave ([1]; uniprot Q08379) of the same compound?
**A.** 54.38

**Q.** What about the “KB03_100 uM_percent_inhibition” value ([3]; 100 uM) of the same compound?
**A.** 57%

**Q.** What about the Liganded [2] of the same compound?
**A.** YES

**Q.** And the “100 Max” value ([2]; uniprot Q14689)?
**A.** 39.34

**Q.** And the 100 ave ([2]; uniprot Q14689)?
**A.** 39.34

**Q.** What about the “500 Max” value ([2]; uniprot Q14689) of the same compound?
**A.** 91.21

**Q.** What about the 500 ave ([2]; uniprot Q14689) of the same compound?
**A.** 91.21
